Results published in patent publication US20140037792A1, “Isolated microorganism strains Lactobacillus plantarum MCC1 DSM 23881 and Lactobacillus gasseri MCC2 DSM 23882 and their use” (Bio-Competence Centre of Healthy Dairy Products, priority 2011, published 2014).
Values after ≈ are worked out from the molar mass of the structure shown. Where two headings read alike, the source gives them in different places.

Assays:
[1] = system: L. gasseri MCC2 DSM 23882; assay: Antibiotic susceptibility, E-test; format: cell-based
Protocol: (§1) Methodology: The susceptibility of L. plantarum MCC1 and L. gasseri MCC2 to antibiotics was tested with the help of E-test (AB Biodisk, Solna). The minimum inhibitory concentration was determined according to the epidemiological breakpoints recommended by the European Commission.

[2] = system: L. plantarum MCC1 DSM 23881; assay: Antibiotic susceptibility, E-test; format: cell-based; details: for resistance of L. plantarum MCC1 to the antibiotic: according to European Commission indicators for lactobacilli
Protocol: as §1

L. plantarum = details: FEEDAP Panel EFSA 2008; cited from earlier work
Lactobacillus spp = details: European Commission 2002; cited from earlier work
[3] = system: Obligately homofermentative lactobacilli (OHOL); details: FEEDAP Panel EFSA 2008; cited from earlier work
[4] = Lactobacillus gasseri, DSM23882, read-out: MIC
[5] = E-test, against L. plantarum MCC1
[6] = E-test, against L. gasseri MCC2
[7] = Lactiplantibacillus plantarum, DSM23881, read-out: MIC
[8] = Lactiplantibacillus plantarum, DSM23881

| Compound | MIC [1, 4] | MIC breakpoint for resistance, L. plantarum (L. plantarum) | MIC breakpoint for resistance, Lactobacillus spp (Lactobacillus spp) | MIC breakpoint for resistance, OHOL [3] | MIC [2, 7] | other results |
| --- | --- | --- | --- | --- | --- | --- |
| C[C@@H](O)[C@H]1C(=O)N2C(C(=O)O)=C(SCCN=CN)C[C@H]12 [Imipenem] | 0.047 µg/mL (≈ 0.157 µM) |  |  |  |  |  |
| Gentamicin |  | 16 µg/mL | 1 µg/mL | 16 µg/mL |  | MIC [2, 5]: 1.5 µg/mL; MIC [1, 6]: 2 µg/mL |
| CN(C)[C@@H]1C(O)=C(C(N)=O)C(=O)[C@@]2(O)C(O)=C3C(=O)c4c(O)cccc4[C@@](C)(O)[C@H]3C[C@@H]12 [Tetracycline] | 0.5 µg/mL (≈ 1.13 µM) |  |  |  | 2 µg/mL (≈ 4.5 µM) |  |
| Trim/sulfam |  |  | 32 µg/mL |  |  | MIC [1, 6]: >32 µg/mL |
| CCC[C@@H]1C[C@@H](C(=O)N[C@@H]([C@H]2O[C@H](SC)[C@H](O)[C@@H](O)[C@H]2O)[C@H](C)Cl)N(C)C1 [Clindamycin] |  |  |  |  | 0.064 µg/mL (≈ 0.151 µM) |  |
| CO[C@@]1(NC(=O)Cc2cccs2)C(=O)N2C(C(=O)O)=C(COC(N)=O)CS[C@@H]21 [Cefoxitin] | 1.5 µg/mL (≈ 3.51 µM) |  | 4 µg/mL |  | 256 µg/mL (≈ 599 µM) | resistance of L. plantarum MCC1 to the antibiotic [2]: resistant |
| CO/N=C(\C(=O)N[C@@H]1C(=O)N2C(C(=O)O)=C(COC(N)=O)CS[C@H]12)c1ccco1 [Cefuroxim] | 0.19 µg/mL (≈ 0.448 µM) |  |  |  | 0.5 µg/mL (≈ 1.18 µM) |  |
| CC[C@H]1OC(=O)[C@H](C)[C@@H](O[C@H]2C[C@@](C)(OC)[C@@H](O)[C@H](C)O2)[C@H](C)[C@@H](O[C@@H]2O[C@H](C)C[C@H](N(C)C)[C@H]2O)[C@](C)(O)C[C@@H](C)C(=O)[C@H](C)[C@@H](O)[C@]1(C)O [Erythromycin] | 0.047 µg/mL (≈ 0.064 µM) | 1 µg/mL | 4 µg/mL | 1 µg/mL |  | MIC [2, 8]: 0.125 µg/mL (≈ 0.17 µM) |
| O=C(O)c1cn(C2CC2)c2cc(N3CCNCC3)c(F)cc2c1=O [Ciprofloxacin] | > 32 µg/mL |  | 4 µg/mL |  | 0.38 µg/mL (≈ 1.15 µM) |  |
| O=C(N[C@H](CO)[C@H](O)c1ccc([N+](=O)[O-])cc1)C(Cl)Cl [Chloramphenicol] | 0.75 µg/mL (≈ 2.32 µM) | 8 µg/mL | 16 µg/mL | 4 µg/mL | 1.5 µg/mL (≈ 4.64 µM) |  |
| CC1(C)S[C@@H]2[C@H](NC(=O)[C@H](N)c3ccccc3)C(=O)N2[C@H]1C(=O)O [Ampicillin] | 0.031 µg/mL (≈ 0.0887 µM) | 2 µg/mL | 2 µg/mL | 1 µg/mL | 0.094 µg/mL (≈ 0.269 µM) |  |
| CO[C@H]1/C=C/O[C@@]2(C)Oc3c(C)c(O)c4c(O)c(c(/C=N/N5CCN(C)CC5)c(O)c4c3C2=O)NC(=O)/C(C)=C\C=C\[C@H](C)[C@H](O)[C@@H](C)[C@@H](O)[C@@H](C)[C@H](OC(C)=O)[C@@H]1C [Rifampin] | 0.064 µg/mL (≈ 0.0778 µM) |  | 32 µg/mL |  |  |  |
| [H]/N=C(/N)N[C@H]1[C@H](O)[C@@H](O)[C@H](O[C@@H]2O[C@@H](C)[C@](O)(C=O)[C@H]2O[C@@H]2O[C@@H](CO)[C@H](O)[C@@H](O)[C@@H]2NC)[C@@H](N/C(N)=N\[H])[C@@H]1O [Streptomycin] |  |  | 16 µg/mL | 16 µg/mL | 16 µg/mL (≈ 27.5 µM) |  |
| CN[C@H](CC(C)C)C(=O)N[C@H]1C(=O)N[C@@H](CC(N)=O)C(=O)N[C@H]2C(=O)N[C@H]3C(=O)N[C@H](C(=O)N[C@H](C(=O)O)c4cc(O)cc(O)c4-c4cc3ccc4O)[C@H](O)c3ccc(c(Cl)c3)Oc3cc2cc(c3O[C@@H]2O[C@H](CO)[C@@H](O)[C@H](O)[C@H]2O[C@H]2C[C@](C)(N)[C@H](O)[C@H](C)O2)Oc2ccc(cc2Cl)[C@H]1O [Vancomycin] |  |  | 4 µg/mL | 2 µg/mL |  | MIC [2, 8]: 256 µg/mL (≈ 177 µM); resistance of L. plantarum MCC1 to the antibiotic [2]: resistant; MIC ([1]; Lactobacillus gasseri, DSM23882): 0.75 µg/mL (≈ 0.518 µM) |
| Quinupristin/dalfopristin |  | 4 µg/mL | 4 µg/mL | 4 µg/mL |  | MIC [2, 5]: 1 µg/mL |
